Measurements taken from patent US6468729B2, “Silver halide photographic light-sensitive material” (Fuji Photo Film Co., Ltd., priority 2000, dated 2002).

Assay: pKa measurement by titration (AT-210 device, neutralization middle point)
Format: physicochemical
Details: —NHSO2— dissociation group, 25° C., THF/H2O=6/4
Experimental: The measurement of the pKa value in the present invention will be described below. […] 20 mL of H2O were then added to completely dissolve the material. Subsequently, 0.25 mL of an aqueous 0.2 N hydrochloric acid solution was added, and the resultant solution was stirred. An aqueous 0.2 N NaOH solution was dropped into this solution, and the pKa value was obtained from the neutralization middle point. All pKa values in the present invention were obtained under the above measurement conditions.

pKa value	SMILES
more than 12	CCCCCCCCCCCCCCCCCCOc1ccc(C(C)(C)C)cc1S(=O)(=O)NC(C)c1n[nH]c2cc(C(C)(C)C)nn12 (centres unmarked) [Compound G-1]
more than 12	CCCCCCCCCCCCCCCC(C(=O)O)C(=O)Nc1cccc(C(=O)Nc2ccc(CCCc3n[nH]c4cc(C(C)(C)C)nn34)cc2)c1 (centres unmarked) [Compound G-2]
more than 12	CCCCCCCCOc1ccc(C(C)(C)CC(C)(C)C)cc1S(=O)(=O)Nc1cc(S(=O)(=O)Nc2c(C)cc(C)c(-c3n[nH]c4cc(CC)nn34)c2C)ccc1Cl [Compound G-3]
more than 12	CCCCCCCCOc1ccc(NS(=O)(=O)c2cc(C(C)(C)CC(C)(C)C)ccc2OCCOc2ccc(C)cc2)cc1S(=O)(=O)NC(C)c1n[nH]c2cc(C(C)(C)C)nn12 (centres unmarked) [Compound G-4]
more than 12	CCCCCCCCOc1ccc(C(C)(C)CC(C)(C)C)cc1S(=O)(=O)Nc1ccc(OCCOC)c(S(=O)(=O)NC(C)(C)c2n[nH]c3c(Cl)c(C(C)(C)C)nn23)c1 [Compound G-5]
more than 12	CCCCCCCCOc1ccc(NS(=O)(=O)c2cc(C(C)(C)CC(C)(C)C)ccc2OCCCCCCCC)cc1S(=O)(=O)NCC(C)c1n[nH]c2c(Cl)c(C(C)(C)C)nn12 (centres unmarked) [Compound G-6]
more than 12	CCCCCCCCCCCCC(Oc1ccc(NS(=O)(=O)c2ccc(S(N)(=O)=O)cc2)cc1)c1n[nH]c2c(Cl)c(C)nn12 (centres unmarked) [Compound G-7]
more than 12	CCCCCCCCOc1ccc(NS(=O)(=O)c2cc(C(C)(C)CC(C)(C)C)ccc2OCCCCCCCC)cc1S(=O)(=O)NCC(C)c1n[nH]c2cc(CC)nn12 (centres unmarked) [Compound G-9]
